Experimental findings from patent publication US20080027035A1, “Dpp-Iv Inhibitors” (GRAFFINITY PHARMACEUTICALS AG, priority 2003, published 2008) are described below.

The target of this experiment is T1, DPP-IV (Homo sapiens, UniProt P27487).
T1 construct: Soluble human DPP-IV lacking the transmembrane anchor (Gly31-Pro766); Pre-Pro-alpha-mating factor leader (secretion signal) (N, cleaved yes); made in house
The experiment in a line: Inhibition of DPP-IV peptidase activity, continuous fluorimetric assay (Gly-Pro-AMC cleavage). It is filed as biochemical. Conditions: 16 μM Gly-Pro-AMC, pH 7.4, 25° C., 1% DMSO. On the procedure:
Inhibition of DPP-IV peptidase activity was monitored with a continuous fluorimetric assay. This assay is based on the cleavage of the substrate Gly-Pro-AMC (Bachem) by DPP-IV, releasing free AMC. The assay is carried out in 96-well microtiterplates. In a total volume of 100 μL, compounds are preincubated with […] employing a buffer containing 10 mM Hepes, 150 mM NaCl, 0.005% Tween 20 (pH 7.4). […] The final concentration of DMSO is 1%. The inhibitory potential of the compounds were determined.
Soluble human DPP-IV lacking the transmembrane anchor (Gly31-Pro766) was expressed in a recombinant YEAST-strain as Pre-Pro-alpha-mating fusion.

T1 sequence (P27487 31-766): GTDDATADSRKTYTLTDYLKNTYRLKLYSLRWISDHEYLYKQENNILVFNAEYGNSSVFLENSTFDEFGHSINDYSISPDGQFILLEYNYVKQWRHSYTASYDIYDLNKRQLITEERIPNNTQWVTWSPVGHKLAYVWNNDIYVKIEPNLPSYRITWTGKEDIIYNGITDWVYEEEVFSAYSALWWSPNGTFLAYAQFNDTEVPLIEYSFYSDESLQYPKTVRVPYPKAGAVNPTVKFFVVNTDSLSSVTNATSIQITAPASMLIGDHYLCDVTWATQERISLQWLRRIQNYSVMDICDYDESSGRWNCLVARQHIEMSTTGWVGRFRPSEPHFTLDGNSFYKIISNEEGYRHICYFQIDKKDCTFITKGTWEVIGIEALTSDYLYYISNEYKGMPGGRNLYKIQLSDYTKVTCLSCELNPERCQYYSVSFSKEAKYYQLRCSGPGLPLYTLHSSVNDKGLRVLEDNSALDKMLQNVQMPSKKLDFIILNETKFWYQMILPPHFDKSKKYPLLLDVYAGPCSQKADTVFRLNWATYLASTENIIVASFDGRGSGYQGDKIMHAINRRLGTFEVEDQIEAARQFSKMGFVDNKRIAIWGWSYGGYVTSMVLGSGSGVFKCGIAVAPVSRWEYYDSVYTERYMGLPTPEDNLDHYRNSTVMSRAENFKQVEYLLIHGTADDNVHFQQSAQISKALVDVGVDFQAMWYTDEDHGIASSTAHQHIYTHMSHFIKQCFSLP

In general, IC50 refers to the concentration that gives 50% inhibition. The molecule `N[C@@H](CC(=O)N1CCC[C@H]1CNC(=O)c1ccccc1)Cc1ccccc1` [Example 49] had an IC50 of 101 to 1000 nM.
